Test [1] has as its target T1, TAOK2 (Rattus norvegicus, UniProt Q9JLS3).
T1 construct: made in house
T1 sequence (Q9JLS3 1-320 limits assumed): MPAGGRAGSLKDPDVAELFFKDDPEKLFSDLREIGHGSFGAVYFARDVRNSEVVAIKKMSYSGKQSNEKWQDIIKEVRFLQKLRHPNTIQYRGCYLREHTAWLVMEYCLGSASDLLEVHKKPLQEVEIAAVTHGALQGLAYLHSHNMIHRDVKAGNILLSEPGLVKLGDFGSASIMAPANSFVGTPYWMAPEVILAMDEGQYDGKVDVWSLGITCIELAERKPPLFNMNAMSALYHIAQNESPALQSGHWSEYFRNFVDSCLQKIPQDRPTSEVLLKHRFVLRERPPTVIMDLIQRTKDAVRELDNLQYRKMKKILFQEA
The experiment in a line: Differential scanning fluorimetry (DSF) binding assay against TAOK2. The following applies: DSF melt temperature shift of TAOK2, 5 μM TAOK2, compound 1 μM. Here is the method:
(§1) Differential scanning fluorimetry binding assays of selected compounds against TAOK2 were conducted to measure strength of compound binding. A solution of 5 μM TAOK2, 50 mM MgCl2, 50 mM HEPES pH 7.5, and 2.5x SyproOrange(Life Technologies) was made. Compound was added to a final concentration of 1 μM. 25 μl of the reaction solution was added to the wells of a Biorad Multiplate 96 wellclear PCR plate. The plate was covered with a Biorad Microseal ‘B’ seal. Plates were read in a Biorad CFX96 Real-Time PCR system. The temperature was increased from 4° C. to 80° C., with fluorescence measurements being taken every 0.5° C. in the 6-FAM Fluorescein channel. The fluorescence response to heat curve was fit to a binding isotherm in order to determine the inflection point, which was taken as the melt temperature (Tm).
The prevalence of multiple heterocycles in the compounds is reflective of the composition of the screen (described in Methods in Supplemental Material). These 13 compounds were purchased from Chembridge Inc. and ChemDiv Inc. for measurement of direct binding using Differential Scanning Fluorimetry (DSF). DSF measures protein melt temperature (Tm) with a lipophilic dye (SyproOrange). As the temperature of the solution is increased, measurements of dye fluorescence are taken. When the protein begins to denature, hydrophobic regions in the protein are exposed, and the dye is able to bind. This binding insulates the dye from the surrounding water, reducing quenching effects and allowing fluorescence. Binding of small molecules to protein has a stabilizing effect, and this is seen by an increase in melt temperature (Table 1). The ΔTm values ranged from 3.0 to −0.6° C. The three compounds with the highest positive shifts were SW034538, SW163112, and SW083688, with 3° C., 2.2° C., and 2° C. shifts, respectively.
Background: In DSF a fluorescence change marks the thermal transition of the protein.

Test [2] deals with T1, TAOK2. The experiment in a line: Kinase-Glo high-throughput screen / re-screen of TAOK2 activity (MBP substrate). Format: biochemical. To be noted: estimate from HTS re-screen at 1, 3.3 and 10 μM. Here is the method:
TAOK2 activity was screened in a high-throughput fashion using Kinase-Glo (Promega). A 20 μL, solution of 50 mM HEPES pH 7.4, 50 mM MgCl2, 1.27 mg/ml MBP and 0.005 mg/ml TAOK2 was added to each well of a 384 well Corning plate using a Biotek MultiFlo dispenser. 0.2 μl of compound (columns 3 to 22, 50 μM), DMSO negative control (columns 2, 23, and 24), or staurosporine positive control (column 1, 43.4 μM) were then added to each well with a Biomek Liquid handler. 10 μl of 50 μg/ml ATP solution was added to each well with a Labsystems Multidrop384. The plates were incubated at RT for 100 minutes. 20 μl Kinase Glo (Promega) was added to each well, and allowed to incubate for 10minutes under agitation. Luminescence was read on an Envision Multilabel plate reader.
After cherry picking primary hits, the selected compounds were assayed in a limited dose-response format (10, 3.3, and 1 μM) in triplicate using the primary enzymatic assay for TAOK2. The data for each assay well was normalized to the neutral controls. The normalized activity values (replicates) for each compound in each assay were then condensed to a single value (condensed activity) using the “Robust Condensing” method in Genedata Screener®. The condensed activity is the most representative single value of the triplicates. In general, the triplicates were pre-condensed into a pair of values as follows:
In order to study the relationship between TAOK2 and both cancer and autophagy, a high-throughput screen was performed using a 200,000 compound library to discover novel small-molecule kinase inhibitors (FIG. 1A-D). Phosphorylation reactions were performed in a 384 well format against the generic kinase substrate Myelin Basic Protein (MBP) with the addition of compound. Kinase-Glo (Promega) was then added to each well to detect remaining ATP concentration. Thus, inhibitory compounds would decrease TAOK2 activity, which would increase both remaining ATP concentration and luminescence in those wells.
After the initial screen, 1645 compounds were identified with inhibition greater than three σ above the mean DMSO control (FIG. 1A). The Z′ factor of the initial screen across all plates was 0.77, indicating high significance (FIG. 1B). These compounds were then re-screened in triplicate under the same conditions, with the compounds being assayed at three concentrations (1 μM, 3.3 μM, and 10 μM, FIG. 1C, D). 432 compounds were identified after the re-screen with average inhibitions greater than 10 sigma at the 10 μM concentration. The Z′ factor of the confirmation screen was 0.52, again indicating high significance.

The target in the next test is p38 (Homo sapiens, UniProt Q16539). The experiment in a line: DSF against p38 (selectivity panel of MAPK cascade members). Format: binding. To be noted: for ΔΔTm (p38): difference between the TAOK2 ΔTm and that of p38, DSF. How it is done:
as §1
(§2) The difference between the TAOK2 ΔTm and that of p38 and ASK1 was determined. […] The majority of the other compounds were also preferentially inhibitory toward TAOK2. Of the 13 compounds, SW034538, SW172006 and SW083688 were cross-verified for selectivity by performing a specificity screen against 45 kinases commercially at Eurofins Cerep, Inc. (FIG. 3).

The next test addresses T2, ASK1 (Homo sapiens, UniProt Q99683).
T2 sequence (Q99683 1-1374): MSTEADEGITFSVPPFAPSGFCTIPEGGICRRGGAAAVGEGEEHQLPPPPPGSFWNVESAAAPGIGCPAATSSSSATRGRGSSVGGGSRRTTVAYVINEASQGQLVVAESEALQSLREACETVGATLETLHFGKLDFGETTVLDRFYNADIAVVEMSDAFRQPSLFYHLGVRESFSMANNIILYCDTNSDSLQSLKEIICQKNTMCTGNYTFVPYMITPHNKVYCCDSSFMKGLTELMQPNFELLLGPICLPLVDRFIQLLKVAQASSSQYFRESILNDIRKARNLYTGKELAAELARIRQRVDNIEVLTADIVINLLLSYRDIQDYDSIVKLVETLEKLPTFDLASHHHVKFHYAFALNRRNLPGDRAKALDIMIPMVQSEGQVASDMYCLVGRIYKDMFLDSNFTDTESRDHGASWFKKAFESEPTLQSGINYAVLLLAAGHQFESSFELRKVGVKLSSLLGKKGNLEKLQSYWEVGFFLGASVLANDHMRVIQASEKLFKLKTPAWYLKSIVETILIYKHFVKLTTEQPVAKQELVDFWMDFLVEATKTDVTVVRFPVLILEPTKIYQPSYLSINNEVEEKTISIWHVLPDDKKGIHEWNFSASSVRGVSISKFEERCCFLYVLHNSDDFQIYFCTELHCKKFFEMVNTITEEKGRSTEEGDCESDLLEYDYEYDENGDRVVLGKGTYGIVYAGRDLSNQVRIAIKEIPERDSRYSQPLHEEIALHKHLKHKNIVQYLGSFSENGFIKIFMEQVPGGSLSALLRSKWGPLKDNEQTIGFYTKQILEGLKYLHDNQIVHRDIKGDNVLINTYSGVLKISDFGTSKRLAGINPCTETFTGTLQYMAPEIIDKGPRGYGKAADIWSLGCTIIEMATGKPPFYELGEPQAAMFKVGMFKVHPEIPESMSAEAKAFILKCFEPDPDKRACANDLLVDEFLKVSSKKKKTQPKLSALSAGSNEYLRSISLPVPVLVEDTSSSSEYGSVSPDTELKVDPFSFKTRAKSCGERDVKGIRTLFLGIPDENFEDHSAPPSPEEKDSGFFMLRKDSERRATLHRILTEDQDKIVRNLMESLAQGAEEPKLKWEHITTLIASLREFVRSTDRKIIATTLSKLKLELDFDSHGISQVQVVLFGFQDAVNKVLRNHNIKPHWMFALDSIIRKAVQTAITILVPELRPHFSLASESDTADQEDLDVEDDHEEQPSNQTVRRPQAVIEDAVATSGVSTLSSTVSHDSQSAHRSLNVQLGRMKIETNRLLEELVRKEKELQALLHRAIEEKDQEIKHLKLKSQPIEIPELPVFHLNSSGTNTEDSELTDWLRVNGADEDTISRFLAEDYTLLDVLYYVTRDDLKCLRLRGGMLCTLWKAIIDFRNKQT
The experiment in a line: DSF against ASK1 (selectivity panel of MAPK cascade members). The following applies: difference between the TAOK2 ΔTm and that of ASK1, DSF. It is filed as binding. Here is the method:
as §1, §2

Each structure is given as a SMILES string.

In general, ΔTm refers to the change in melting temperature against a reference sample. Broadly, the IC50 is the concentration needed to halve the response being measured.

p38, sequence (Q16539 whole entry): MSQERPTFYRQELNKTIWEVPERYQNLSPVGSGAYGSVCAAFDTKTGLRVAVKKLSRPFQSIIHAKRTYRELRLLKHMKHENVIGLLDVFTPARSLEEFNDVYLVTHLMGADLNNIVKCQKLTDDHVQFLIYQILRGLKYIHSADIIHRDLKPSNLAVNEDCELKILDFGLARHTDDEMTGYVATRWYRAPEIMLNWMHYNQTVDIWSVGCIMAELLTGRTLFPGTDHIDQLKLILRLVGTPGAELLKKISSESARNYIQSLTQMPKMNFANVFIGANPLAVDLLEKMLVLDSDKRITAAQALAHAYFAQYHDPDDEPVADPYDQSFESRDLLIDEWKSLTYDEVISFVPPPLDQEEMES

With `CCc1ccccc1Nc1ncc(-c2sc(NC(C)=O)nc2C)s1` [SW034513], the ΔTm on TAOK2 [1] came out at 0.1 °C. Also, the half-maximal inhibitory concentration (IC50) at TAOK2 [2] is 3000 nM.
Turning to `O=C(NCC1COc2ccccc2O1)c1ccc2c(=O)n(Cc3ccco3)c(=S)[nH]c2c1` (stereo not shown) [SW083604], at TAOK2 [1], the ΔTm worked out at 1.2 °C. At p38 (DSF cross-reactivity with p38), the “ΔTm with respect to p38” value was 0.9 °C. Further, the “ΔΔTm (p38)” value on p38 came to 0.3 °C. The “ΔΔTm (ASK1)” value at ASK1 is 1.1 °C. The IC50 on TAOK2 [2] is 600 nM.
Turning to `Cc1ccc(NCCCC(=O)N/N=C/c2cc(Br)cc(Br)c2O)cc1` [SW106178], on TAOK2 [1], the thermal shift (ΔTm) stood at 1.6 °C. Also, at p38, the “ΔΔTm (p38)” value was 1.3 °C. Moreover, the “ΔΔTm (ASK1)” value at ASK1 came to 1.2 °C. Besides, at TAOK2 [2], the half-inhibitory concentration (IC50) was 6000 nM.
Take `Cc1cccc(NC(=S)N/N=C/c2c[nH]c3ccccc23)c1` [SW109820]: the ΔTm at TAOK2 [1] is 0.5 °C. The IC50 at TAOK2 [2] was 1000 nM.

The values above are taken from US20170340636A1, “COMPOSITIONS AND METHODS FOR INHIBITION OF AUTOPHAGY” (Board of Regents, The University of Texas System, priority 2016, published 2017).
